Data from patent publication US8192962B2, “Processes for detecting toxic substances” (Daikin Industries, Ltd., priority 2001, dated 2012).

Test system: Genes belonging to other category
Assay: DNA chip mRNA expression in yeast, genes belonging to other category (Table 9)
Assay type: cell-based, Saccharomyces cerevisiae S288C
Summary of the method: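 Cells were grown at 25° C. in YPD, treated at logarithmic phase for 2 h with a chemical at a concentration inhibiting growth but not causing death, and compared with untreated cultures. Labeled cDNA was hybridized to a DNA chip carrying all yeast genes, and the expression ratio was taken from scanner fluorescence.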

## CCCCCCCCCCCCc1ccc(S(=O)(=O)[O-])cc1.[Na+] [(17), sodium dodecylbenzosulfonate]
Yeast gene YKL008C
  The level of expressed mRNA in the presence of chemical substance/The level of expressed mRNA in the absence of chemical substance: 1.4
Yeast gene YKL013C
  The level of expressed mRNA in the presence of chemical substance/The level of expressed mRNA in the absence of chemical substance: 1.6
Yeast gene YKL039W
  The level of expressed mRNA in the presence of chemical substance/The level of expressed mRNA in the absence of chemical substance: 1.2
Yeast gene YKL096W
  The level of expressed mRNA in the presence of chemical substance/The level of expressed mRNA in the absence of chemical substance: 0.5
Yeast gene YKL165C
  The level of expressed mRNA in the presence of chemical substance/The level of expressed mRNA in the absence of chemical substance: 0.9
Yeast gene YKL193C
  The level of expressed mRNA in the presence of chemical substance/The level of expressed mRNA in the absence of chemical substance: 1.2
Yeast gene YLR120C
  The level of expressed mRNA in the presence of chemical substance/The level of expressed mRNA in the absence of chemical substance: 3.5
Yeast gene YLR136C
  The level of expressed mRNA in the presence of chemical substance/The level of expressed mRNA in the absence of chemical substance: 1.8
Yeast gene YLR178C
  The level of expressed mRNA in the presence of chemical substance/The level of expressed mRNA in the absence of chemical substance: 2.0
Yeast gene YLR250W
  The level of expressed mRNA in the presence of chemical substance/The level of expressed mRNA in the absence of chemical substance: 1.4
Yeast gene YLR327C
  The level of expressed mRNA in the presence of chemical substance/The level of expressed mRNA in the absence of chemical substance: 3.3
Yeast gene YLR356W
  The level of expressed mRNA in the presence of chemical substance/The level of expressed mRNA in the absence of chemical substance: 1.1
Yeast gene YLR362W
  The level of expressed mRNA in the presence of chemical substance/The level of expressed mRNA in the absence of chemical substance: 1.2
Yeast gene YLR391W
  The level of expressed mRNA in the presence of chemical substance/The level of expressed mRNA in the absence of chemical substance: 1.4
Yeast gene YLR429W
  The level of expressed mRNA in the presence of chemical substance/The level of expressed mRNA in the absence of chemical substance: 1.0
Yeast gene YMR004W
  The level of expressed mRNA in the presence of chemical substance/The level of expressed mRNA in the absence of chemical substance: 0.9
Yeast gene YMR094W
  The level of expressed mRNA in the presence of chemical substance/The level of expressed mRNA in the absence of chemical substance: 1.0
Yeast gene YMR104C
  The level of expressed mRNA in the presence of chemical substance/The level of expressed mRNA in the absence of chemical substance: 2.8
Yeast gene YMR219W
  The level of expressed mRNA in the presence of chemical substance/The level of expressed mRNA in the absence of chemical substance: 1.1
Yeast gene YMR226C
  The level of expressed mRNA in the presence of chemical substance/The level of expressed mRNA in the absence of chemical substance: 1.6
Yeast gene YMR275C
  The level of expressed mRNA in the presence of chemical substance/The level of expressed mRNA in the absence of chemical substance: 0.9
Yeast gene YMR276W
  The level of expressed mRNA in the presence of chemical substance/The level of expressed mRNA in the absence of chemical substance: 1.2
Yeast gene YMR314W
  The level of expressed mRNA in the presence of chemical substance/The level of expressed mRNA in the absence of chemical substance: 1.3
Yeast gene YNL006W
  The level of expressed mRNA in the presence of chemical substance/The level of expressed mRNA in the absence of chemical substance: 1.0
Yeast gene YNL007C
  The level of expressed mRNA in the presence of chemical substance/The level of expressed mRNA in the absence of chemical substance: 1.1
Yeast gene YNL093W
  The level of expressed mRNA in the presence of chemical substance/The level of expressed mRNA in the absence of chemical substance: 3.0
Yeast gene YNL333W
  The level of expressed mRNA in the presence of chemical substance/The level of expressed mRNA in the absence of chemical substance: 1.4
Yeast gene YNR010W
  The level of expressed mRNA in the presence of chemical substance/The level of expressed mRNA in the absence of chemical substance: 1.7
Yeast gene YNR069C
  The level of expressed mRNA in the presence of chemical substance/The level of expressed mRNA in the absence of chemical substance: 1.1
Yeast gene YOL013C
  The level of expressed mRNA in the presence of chemical substance/The level of expressed mRNA in the absence of chemical substance: 1.1
Yeast gene YOL164W
  The level of expressed mRNA in the presence of chemical substance/The level of expressed mRNA in the absence of chemical substance: 1.1
Yeast gene YOR036W
  The level of expressed mRNA in the presence of chemical substance/The level of expressed mRNA in the absence of chemical substance: 1.6
Yeast gene YOR117W
  The level of expressed mRNA in the presence of chemical substance/The level of expressed mRNA in the absence of chemical substance: 1.4
Yeast gene YOR124C
  The level of expressed mRNA in the presence of chemical substance/The level of expressed mRNA in the absence of chemical substance: 1.0
Yeast gene YOR132W
  The level of expressed mRNA in the presence of chemical substance/The level of expressed mRNA in the absence of chemical substance: 1.2
Yeast gene YOR157C
  The level of expressed mRNA in the presence of chemical substance/The level of expressed mRNA in the absence of chemical substance: 1.2
Yeast gene YOR181W
  The level of expressed mRNA in the presence of chemical substance/The level of expressed mRNA in the absence of chemical substance: 1.1
Yeast gene YOR185C
  The level of expressed mRNA in the presence of chemical substance/The level of expressed mRNA in the absence of chemical substance: 0.9
Yeast gene YOR198C
  The level of expressed mRNA in the presence of chemical substance/The level of expressed mRNA in the absence of chemical substance: 1.1
Yeast gene YOR259C
  The level of expressed mRNA in the presence of chemical substance/The level of expressed mRNA in the absence of chemical substance: 0.9
Yeast gene YOR261C
  The level of expressed mRNA in the presence of chemical substance/The level of expressed mRNA in the absence of chemical substance: 1.0
Yeast gene YOR288C
  The level of expressed mRNA in the presence of chemical substance/The level of expressed mRNA in the absence of chemical substance: 1.5
Yeast gene YOR355W
  The level of expressed mRNA in the presence of chemical substance/The level of expressed mRNA in the absence of chemical substance: 0.8
Yeast gene YOR383C
  The level of expressed mRNA in the presence of chemical substance/The level of expressed mRNA in the absence of chemical substance: 1.4
Yeast gene YPL089C
  The level of expressed mRNA in the presence of chemical substance/The level of expressed mRNA in the absence of chemical substance: 1.5
Yeast gene YPL109C
  The level of expressed mRNA in the presence of chemical substance/The level of expressed mRNA in the absence of chemical substance: 1.2
Yeast gene YPL149W
  The level of expressed mRNA in the presence of chemical substance/The level of expressed mRNA in the absence of chemical substance: 2.2
Yeast gene YPL154C
  The level of expressed mRNA in the presence of chemical substance/The level of expressed mRNA in the absence of chemical substance: 1.6
Yeast gene YPR103W
  The level of expressed mRNA in the presence of chemical substance/The level of expressed mRNA in the absence of chemical substance: 1.2
Yeast gene YPR108W
  The level of expressed mRNA in the presence of chemical substance/The level of expressed mRNA in the absence of chemical substance: 1.0
